Reference: patent publication US20060135415A1, “Immunomodulation and effect on cell processes relating to serotonin family receptors and the blood-brain barrier” (priority 2002, published 2006)
Entries after “also recorded” stand apart in the source; their conditions may differ.

What was measured:
[1] = test system: ConA stimulated human lymphocytes; assay: Human mitogenic (ConA) stimulation, 3H-thymidine incorporation; format: cell-based; conditions: for activation / proliferative response: 5 μg/ml ConA, harvest 72 hours, drug titration (FIGS. 7A, 8A, 9A, 17, 33)
Procedure: Blood from healthy volunteers was drawn using venipuncture, using Vacutainer collection sets and heparinized collection vials. The blood was diluted 1:1 using HBSS to a total volume of 30 ml in 50 ml conical tubes (Fisher Scientific, Co., Pittsburgh, Pa.). […] Cells from the buffy coats were collected and the residual Histopaque was washed away using repeated centrifugations in HBSS. After washes, cells were resuspended at 5 million cells per ml in RPMI, supplemented with 2% FBS. To remove adherent cells, the suspension was plated onto a 6 well flat-bottom plate (Corning Costar), 3 ml/well, and incubated for 2 hours at 37° C., 5% CO2. Non-adherent cells were harvested after this incubation, were counted and resuspended in RPMI supplemented with 10% human serum (Sigma).
All drugs were pre-plated before the cell suspension was added onto each well of a 96-well round-bottom plate. All experimental conditions were assayed in at least triplicate. Cells suspended in RPMI supplemented with 10% human serum were plated at 100,000 cells per well to a final volume of 200 μl. […] Control samples received no ConA stimulation. The plates were incubated at 37° C. and 5% CO2.

[2] = test system: allogeneic stimulation of human lymphocytes; assay: Human mixed lymphocyte reaction (allogeneic stimulation), 3H-thymidine; format: cell-based; conditions: allogeneic stimulation, harvest 120 hours, drug titration (FIGS. 7B, 8B, 9B)
From the text: Blood from two healthy, non-related, donors was taken as described above. Peripheral blood mononuclear cells were isolated as described previously elsewhere. The adherent cells were separated from the suspension cells as described previously for both donors. Suspension cells from both donors (donors A and B) were used as responders. The remaining adherent cells from each of the donors were used as stimulators against a different donor (suspension A against adherent B and adherent A against suspension B). The stimulator cells were irradiated at 35 Gy. Drugs were pre-plated onto 96 well, U-bottom plates in triplicate. 200,000 “stimulator” cells in RPMI supplemented with 10% human serum were then plated in each well. 200,000 “responder” cells in the same medium were then plated over stimulators to a final volume of 200 μl/well. Background controls received either no stimulator cells, or no responder cells. The plates were incubated at 37° C. and 5% CO2. 1 μCi of tritiated thymidine was added to each well after 4.5 days, and the plates were harvested 12 hours later.

[3] = test system: allogeneic CTL response against P815 cells; assay: Murine allograft model, CTL killing of P815 target cells by splenocytes; format: in vivo, C57BL/6J mice; conditions: Cyclosporin A 100 μg ip daily from day −2; for allograft (CTL) response: 5HT antagonists 200 μg/injection tail vein days 6 and 8, sacrifice day 14 (FIGS. 13, 14); for allogeneic killing response: serotonin-specific compounds 300 μg/injection tail vein days 5 and 7, sacrifice day 14 (FIGS. 18A, 18B)
Procedure: The in vivo validation screen used was an art-recognized murine allogeneic rejection model as described in Zhan et al., 2000. For this assay, a complete MHC miss-match system was employed wherein 5×10^6 P815 cells ([H-2^d] DBA/2 mastocytoma) were injected into the peritoneal cavity of C57BL/6J (H-2^b) mice on day 0 of the experiment. These mice typically generate a strong cytotoxic T lymphocyte (CTL) reaction in response to P815 cells. Following the initial P815 cell inoculation, the mice were allowed to develop a CTL response (this usually takes about 10-14 days). […] Mice were then sacrificed on day 14 of the experiment as indicated in the figures; and the allogeneic CTL response was assayed as described previously (Tretiakova et al., 2000, Nature Biotechnology 18:984-988). The primary spleen cells from the treated and untreated animals were used in the direct CTL readout. Freshly obtained primary spleen cells were incubated with the [^3H] labeled target cells (P815 cells) at 100:1, 50:1, 25:1, and 12.5:1 ratios for 3.5 hours at 37° C. and harvested using a PHD harvester. The percentage of specific killing was determined using the formula % kill=(S−E)/S, where S is the amount of the DNA retained by the target cells in the absence of the effector cells and E is the amount of retained DNA in the presence of the effector cells (expressed in counts per minute; cpm).
This is an art-recognized model of allograft […] rejection based on that described by […]. (2000). In this model, there is a complete MHC mismatch between the P815 cells (H-2^d) and the C57BL6 mouse (H-2^b), thus ensuring an aggressive immune response. The data disclosed in FIG. 13, depicts results of experiments that included 6 treatment groups, each group consisting of three mice. Each mouse received 5×10^6 P815 cells injected into the peritoneal cavity on day 0 of the study. The first group was an untreated control group, which was used to establish the baseline response of the mice against the allogeneic stimulus. These mice, without any further treatments, were sacrificed, as were the other treatment groups, on day 14 of the study and their splenocytes assayed for target-specific killing of the P815 cells.
The average kill observed for the untreated group was about 45% at an effector to target ratio of 100:1. The second group was treated with risperidone, a 5HT-2 antagonist, administered via a tail vein bolus injection (200 μg/injection) on days 6 and 8 of the study. The timing of the drug administration was selected to ensure that the T cells were fully activated prior to the drug treatment. The third group was treated with propanolol, a 5HT-1 antagonist. All of the 5HT receptor antagonist-treated groups were treated as described for the risperidone-treated group. The fourth group was treated chronically with CyclosporinA. The Cyclosporin A was administered ip at a dosage of 100 μg/injection starting two days prior to the onset of the study, i.e., at day −2, and the injections were continued on a daily basis for the duration of the study.
Finally, studies conducted in vivo using the CD8-dependent allograft rejection model, in which P815 cells (a rapidly growing cell line taken from a mastocytoma in a DBA mouse), were expanded and used to create a robust rejection response in a C57BL6 mouse. In this study the mice received 5×10^6 P815 cells injected into their peritoneal cavity on day 0 of the study. The first group was an untreated control group (naïve animals), used to acquire the baseline response of the mice against the allogeneic stimulus. The positive controls were treated with the allogeneic cells without any further treatments. These animals were used to assess the induced allogeneic response against the P815 cells. […]

[4] = test system: RPMI 8226 multiple myeloma cells; assay: RPMI 8226 cell viability and proliferation (trypan blue, MTT, 3H-thymidine); format: cell-based, human; conditions: 3H-thymidine uptake, drug titration (FIGS. 19-25, 31, 32)
Procedure: The human plasmacytoma (multiple myeloma) cell line, RPMI 8226 (American Type Culture Collection, Manassas, Va.), was cultured in RPMI 1640 supplemented with 10 mM HEPES, 1 mM sodium pyruvate, 4.5 g/L glucose, 1.5 g/L bicarbonate and 20% FBS (non-heat inactivated).
Cell proliferation was assayed by three methods—Trypan Blue Exclusion was used to quantify the number of viable cells in culture; 3-(4,5-dimethylthiazol-2-yl)-2,5-diphenyl tetrazolium bromide (MTT) reduction was used to assay mitochondrial activity (and thus cell viability); and ^3H-Thymidine uptake was employed to assay for active DNA synthesis.
Three separate indicators of cell proliferation were employed to study the effects of 5-HT receptor modulating agents on the human multiple myeloma cell line, RPMI 8226. Cells were plated at 4 separate densities and were treated with LY53587 (an antagonist of the 5-HT2A/2B/2C receptors) at a range of concentrations. The exclusion of trypan blue dye was used as an indicator of cell viability. Cell numbers were then plotted against the concentration of drug added.
MTT reduction was also used as an indicator of cell viability (more specifically, mitochondrial activity). Absorbance values at OD570 were then plotted against drug concentration. Finally, DNA synthesis was assayed, through the measurement of ^3H-thymidine uptake, and counts per minute (CPMs) were plotted against drug concentration.
Culturing and administration of drugs and ^3H-thymidine were performed as described elsewhere herein.

RPMI-8226 cells = assay: Cytospin histochemistry (H&E, bis-benzamide) for chromatin; format: cell-based, human; conditions: 9 hour treatments, 50 μM SB compounds, 2 μM camptothecin (FIGS. 28, 29)
Procedure: 2.0×10^5 RPMI-8226 cells were cultured, in 6-well culture plates, in the presence of the indicated drug concentrations, in a total of 5 mL RPMI-1640 supplemented with 10% FBS. Each well was harvested in its entirety and divided into two identical samples for cytospins.
1.0×10^5 RPMI-8226 cells from each treatment group were loaded into Cyto-funnels and centrifuged at 500 rpm for 4 minutes with medium acceleration. Slides were then fixed through graded methanol in PBS (100%, 5 minutes; 80%, 5 minutes; 50%, 5 minutes), washed for 5 minutes in PBS and stored in PBS at 4° C. until stained.
Cytospun slides were stained with Hematoxylin and Eosin, followed by the nuclear stain, bis-benzamide, rinsed and mounted according to standard staining protocols. Slides were visualized under both brightfield and fluorescent light to generate matched images of the same slide field (see, e.g., FIGS. 28 and 29).

`N[C@@H](Cc1ccc(Cl)cc1)C(=O)O` (racemic) [PCPA, para-chlorophenylalanine] was tested, and the mitogenic response ([1]; human PBLs, 1 μg/ml ConA, PCPA titration (FIG. 3)) was “inhibits the mitogenic response in a dose-dependent manner”.
With `N[C@@H](Cc1c[nH]c2ccc(O)cc12)C(=O)O` [5-hydroxytryptophan] the proliferation response ([1]; 25 μM, in the absence of PCPA (FIG. 3)) was “significantly enhanced the proliferation response” and the “reversal of PCPA inhibition of mitogenic response” value ([1]; added to PCPA-inhibited cells (FIG. 3)) was “this inhibition can be reversed”.
With `OC(CN1CCN(c2cccc(Cl)c2)CC1)C(c1ccccc1)c1ccccc1` (stereo not drawn) [BRL 15572] the “activation / proliferative response” value [1] was “had no effect upon the proliferative response” and the “activation / proliferative response” value [2] was “had no effect upon the proliferative response”.
For `CC(O)C(C)OC(=O)[C@@H]1C[C@@H]2c3cccc4c3c(cn4C(C)C)C[C@H]2N(C)C1` (stereo partly drawn) [LY 53857], the “activation / proliferative response” value [1] was “inhibit the activation response at pharmacologically relevant concentrations” and the “activation / proliferative response” value [2] was “inhibit the activation response at pharmacologically relevant concentrations”.
For `Cn1ccc2cc3c(cc21)CCN3C(=O)Nc1cccnc1` [SB 206553], the “activation / proliferative response” value [1] was “inhibit the activation response at pharmacologically relevant concentrations”, the “in vitro activation / proliferation of (helper) T cells” value [1] was “immediate cessation of proliferation” and the “activation / proliferative response” value [2] was “inhibit the activation response at pharmacologically relevant concentrations”. The “allograft (CTL) response” value [3] was “Two of the treated mice had the allogeneic response completely suppressed; also recorded: Two of the three treated mice inhibited the allograft response to a degree equivalent to that observed in the Cyclosporin A-treated animals”, the “allograft (CTL) response” value ([3]; listed as SB206553) was “inhibited the allograft response to varying degrees” and the allogeneic killing response [3] was “striking”.
For `Cc1cc2c(cc1Cl)N(C(=O)Nc1ccc(Oc3cccnc3C)nc1)CC2` [SB 242084], the “inhibitory profile on mitogenic stimulation” value ([1]; 1 μg/ml ConA, harvest 72 h, drug added at time=0 or 48 hours (FIG. 12)) was “retained the complete inhibitory profile”, the “activation / proliferative response” value [1] was “inhibit the activation response at pharmacologically relevant concentrations” and the “activation / proliferative response” value [2] was “inhibit the activation response at pharmacologically relevant concentrations”. For the same compound, the “growth / proliferation of RPMI 8226 cells” value [4] was “strong inhibition of growth”, the “chromatin condensation / fragmentation (apoptosis)” value (RPMI-8226 cells) was “induced programmed cell death comparable to that induced by the topoisomerase I inhibitor, camptothecin” and the “chromatin condensation / fragmentation (apoptosis)” value (RPMI-8226 cells; listed as SB242084) was “condensed and fragmented chromatin”.
With `COc1ccccc1N1CCN(CCN(C(=O)C2CCCCC2)c2ccccn2)CC1` [WAY 100635] the “in vitro activation / proliferation of (helper) T cells” value [1] was “significantly inhibits the activation response”.
For `CC[C@@]1(O)C(=O)OCc2c1cc1n(c2=O)Cc2cc3ccccc3nc2-1` [camptothecin], the “chromatin condensation / fragmentation (apoptosis)” value (RPMI-8226 cells) was “Extensive chromatin condensation and nuclear fragmentation”.
With `CSc1ccc2c(c1)C(N1CCN(C)CC1)Cc1ccccc1S2` (stereo not drawn) [methiothepin] the “activation / proliferative response” value [1] was “inhibit the activation response at pharmacologically relevant concentrations”, the “activation / proliferative response” value [2] was “inhibit the activation response at pharmacologically relevant concentrations” and the “growth / proliferation of RPMI 8226 cells” value [4] was “strong inhibition of growth”.
`CC[C@@H](CO)NC(=O)[C@@H]1C=C2c3cccc4c3c(cn4C)C[C@H]2N(C)C1` [methysergide] was tested, and the “allograft (CTL) response” value [3] was “inhibited the allograft response to varying degrees” and the allogeneic killing response [3] was “complete inhibition of the induced killing response; also recorded: abrogated the allogeneic killing response; also recorded: inhibition profile was striking”.
In the case of `NNCCc1ccccc1` [phenelzine], the “drug concentration giving significant inhibition” value ([1]; 0.1 and 1 μg/ml ConA (FIGS. 5A, 5B)) is reported as 10 to 100 µM, the “drug concentration at which full inhibition occurs” value ([1]; higher ConA stimulation (10 μg/ml)) is reported as 100 to 400 µM and the proliferative response ([1]; highest ConA dose 10 μg/ml, harvest 72 hours (FIG. 5C)) is reported as “no inhibition was observed”. For the same compound, the “stimulation of ConA-activated human PBLs” value ([1]; reagents at 400 μM, time course (FIG. 4)) was “completely shut down the stimulation”.
